The text below walks through data of ChEMBL document CHEMBL1782019, “Pyridones as glucokinase activators: identification of a unique metabolic liability of the 4-sulfonyl-2-pyridone heterocycle” (Bioorg Med Chem Lett, 2009).

Some results are limits rather than exact numbers.

For data set [1], the target named is T1, Hexokinase-4 (Homo sapiens, UniProt P35557).
T1 sequence (P35557 whole entry): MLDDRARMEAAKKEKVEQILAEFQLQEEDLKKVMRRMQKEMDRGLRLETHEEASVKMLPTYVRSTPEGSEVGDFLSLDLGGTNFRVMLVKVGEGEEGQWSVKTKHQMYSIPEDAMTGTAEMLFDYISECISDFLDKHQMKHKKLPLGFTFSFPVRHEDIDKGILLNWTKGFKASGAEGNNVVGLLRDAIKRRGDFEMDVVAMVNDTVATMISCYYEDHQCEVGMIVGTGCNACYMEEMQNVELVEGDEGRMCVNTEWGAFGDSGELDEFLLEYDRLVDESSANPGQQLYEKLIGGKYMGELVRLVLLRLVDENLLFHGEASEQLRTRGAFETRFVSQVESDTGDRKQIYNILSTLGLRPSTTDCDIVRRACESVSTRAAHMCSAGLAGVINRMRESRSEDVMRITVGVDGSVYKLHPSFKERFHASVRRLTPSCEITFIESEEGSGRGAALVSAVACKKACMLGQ
Description: Activation of human recombinant glucokinase using 6.5 mM glucose by spectrophotometry

Data set [2] can be described thus: Bioavailability in Sprague-Dawley rat at 0.5 mg/kg, iv and 5 mg/kg, po. The class given is ADME, organism-based. As to conditions: in vivo.
The nature of data set [3]: Clearance in Sprague-Dawley rat at 0.5 mg/kg, iv and 5 mg/kg, po. To be noted: in vivo. It counts as ADME, organism-based.
Data set [4] is described as follows: Half life in Sprague-Dawley rat at 0.5 mg/kg, iv and 5 mg/kg, po. It counts as ADME, organism-based. As to conditions: in vivo.
The nature of data set [5]: Hepatic clearance in human liver microsome at 1 uM by LC/MS/MS analysis. It counts as ADME. As to conditions: liver microsomes. (In general: Liver microsomes are vesicles of endoplasmic reticulum, rich in cytochrome P450 enzymes.)
Data set [6] can be described thus: Hepatic clearance in rat liver microsome at 1 uM by LC/MS/MS analysis. It counts as ADME. To be noted: liver microsomes.
Data set [7] in a line: Half life in rat liver microsome at 1 uM by LC/MS/MS analysis. It counts as ADME. To be noted: liver microsomes.
A short description of data set [8]: Half life in human liver microsome at 1 uM by LC/MS/MS analysis. As to conditions: liver microsomes. It counts as ADME.
Data set [9] is described as follows: Fraction unbound in Sprague-Dawley rat at 0.5 mg/kg, iv and 5 mg/kg, po. The class given is ADME, organism-based. To be noted: plasma.

Regarding `Cc1cnc(NC(=O)[C@H](CC2CCCC2)n2cc(Cl)c(S(=O)(=O)C(C)C)cc2=O)cn1`, in data set [1], the 50% effective concentration (EC50) came to 0.7 µM.

`CC(C)S(=O)(=O)c1ccn([C@@H](CC2CCCC2)C(=O)Nc2ccccn2)c(=O)c1` gave an EC50 in data set [1] of 0.6 µM.

The compound `Cc1ccc(NC(=O)[C@H](CC(C)C)n2ccc(S(=O)(=O)C(C)C)cc2=O)nc1` yielded an EC50 in [1] of 0.51 µM.

With `Cn1ccc(NC(=O)[C@H](CC2CCCC2)n2ccc(S(=O)(=O)C3CCC3)cc2=O)n1`, the concentration giving a half-maximal response (EC50) in [1] came out at 0.26 µM.

The compound `CC(C)S(=O)(=O)c1ccn([C@@H](CC2CCCC2)C(=O)Nc2ccn(C)n2)c(=O)c1` yielded an EC50 in data set [1] of 0.91 µM. The compound also had a bioavailability in [2] of 8%. Further, the clearance in data set [3] worked out at 164 mL/min/kg. This compound showed a half-life in [4] of 12 min. The values for the CLhep predicted at 1 µM in data set [5] and in data set [6] were 10 mL/min/kg and 58 mL/min/kg, respectively. The half-life at 1 µM was determined as 8 min in data set [7] and 93 min in data set [8]. The free fraction (fraction unbound) in [9] is 0.59.

In [1], `Cc1ccc(NC(=O)[C@H](CC2CCCC2)n2cc(Cl)c(S(=O)(=O)C(C)C)cc2=O)nc1` returned an EC50 of 0.26 µM.

For the compound `Cc1ccc(NC(=O)[C@H](CC2CCCCC2)n2ccc(S(=O)(=O)C(C)C)cc2=O)nc1`, in data set [1], the EC50 was 0.24 µM.

`O=C(Nc1cnccn1)[C@H](CC1CCCC1)n1ccc(S(=O)(=O)C2CCC2)cc1=O` gave a concentration giving a half-maximal response (EC50) in data set [1] of 0.59 µM.

`Cc1ccc(NC(=O)[C@H](CC2CCC2)n2ccc(S(=O)(=O)C(C)C)cc2=O)nc1` returned a concentration for a half-maximal effect (EC50) in data set [1] of 0.67 µM.

Compound `Cc1ccc(NC(=O)[C@H](Cc2ccccc2)n2ccc(S(=O)(=O)C(C)C)cc2=O)nc1` gave a concentration for a half-maximal effect (EC50) in [1] of 3.3 µM.

In data set [1], `Cc1ccc(NC(=O)[C@H](CC2CCCC2)n2ccc(S(=O)(=O)C3CCC3)cc2=O)nc1` returned an EC50 of 0.06 µM.

The compound `CS(=O)(=O)c1cc(=O)n([C@@H](CC2CCCC2)C(=O)Nc2ccc(Cl)cn2)cc1Cl` showed an EC50 in [1] of 0.14 µM.

The compound `Cc1ccc(NC(=O)[C@H](CC2CCCC2)n2ccc(S(=O)(=O)C(C)C)c(Cl)c2=O)nc1` yielded a 50% effective concentration (EC50) in data set [1] of 0.07 µM.

In data set [1], `Cc1ccc(NC(=O)[C@H](CC2CCCC2)n2ccc(S(=O)(=O)C(C)C)cc2=O)nc1` gave a concentration giving a half-maximal response (EC50) of 0.23 µM.

Take `Cc1ccc(NC(=O)[C@H](CC2CCCC2)n2ccc(S(C)(=O)=O)cc2=O)nc1`: in [1], the EC50 is 0.56 µM. The results for the CLhep predicted at 1 µM in data set [5] and in [6] were 5 mL/min/kg and 58 mL/min/kg, respectively. Moreover, the half-life at 1 µM in data set [7] was 9 min; in data set [8], over 120 min.

On to `Cc1ccc(NC(=O)[C@H](CC2CCC(F)(F)CC2)n2ccc(S(=O)(=O)C(C)C)cc2=O)nc1`, for which the EC50 in [1] stood at 0.16 µM. Also, the CLhep predicted at 1 µM is 8 mL/min/kg in [5] and 36 mL/min/kg in [6]. The half-life at 1 µM in data set [7] is 42 min; in [8] it was 73 min.

On to `Cc1ccc(NC(=O)[C@H](CC2CCCC2)n2ccc(S(=O)(=O)C3CC3)cc2=O)nc1`, for which the EC50 in data set [1] amounted to 0.11 µM.

The compound `Cc1csc(NC(=O)c2cc(Sc3nccn3C)c(F)cc2N)n1` had an EC50 in [1] of 0.62 µM.

The compound `O=C(Nc1cnccn1)[C@H](CC1CCCC1)n1ccc(S(=O)(=O)C2CC2)cc1=O` registered a concentration for a half-maximal effect (EC50) in data set [1] of 1.3 µM.

For the compound `CC(C)S(=O)(=O)c1ccn([C@@H](CC2CCCC2)C(=O)Nc2ccc(C(F)(F)F)cn2)c(=O)c1`, in data set [1], it took 0.33 µM to reach a half-maximal effect (EC50).

`Cc1ccc(NC(=O)[C@H](CC2CCCC2)n2cc(Cl)c(S(C)(=O)=O)cc2=O)nc1` gave a concentration for a half-maximal effect (EC50) in data set [1] of 0.48 µM.

In turn, `CC(C)S(=O)(=O)c1ccn([C@@H](CC2CCCC2)C(=O)Nc2cc[nH]n2)c(=O)c1` showed a concentration for a half-maximal effect (EC50) in data set [1] of 0.72 µM.

Compound `Cc1ccc(NC(=O)[C@H](CC2CCCC2)n2cc(C)c(S(=O)(=O)C(C)C)cc2=O)nc1` gave a concentration giving a half-maximal response (EC50) in data set [1] of 0.16 µM.

Compound `CC(C)S(=O)(=O)c1ccn([C@@H](CC2CCCC2)C(=O)Nc2nccs2)c(=O)c1` registered an EC50 in [1] of 1.3 µM.

In data set [1], `CCS(=O)(=O)c1ccn([C@@H](CC2CCOCC2)C(=O)Nc2ccc(C)cn2)c(=O)c1` came in with an EC50 of 1.5 µM. Besides, the CLhep predicted at 1 µM is under 5 mL/min/kg in data set [5] and under 18 mL/min/kg in data set [6]. In addition, the half-life at 1 µM in data set [7] and in data set [8] was over 120 min throughout.

With `Cc1cnc(NC(=O)[C@H](CC2CCCC2)n2ccc(S(C)(=O)=O)cc2=O)cn1`, in data set [1], the EC50 stood at 3.5 µM. The compound further yielded a bioavailability in data set [2] of 2%. The compound also had a clearance in [3] of 337 mL/min/kg. For the same compound, in [4], the half-life is 12 min. The CLhep predicted at 1 µM in data set [5] is under 5 mL/min/kg; in [6] it was 31 mL/min/kg. Moreover, the results for the half-life at 1 µM in data set [7] and in data set [8] were 56 min and over 120 min, respectively. The unbound share (fraction unbound) in [9] turned out to be 0.35.

Compound `CCS(=O)(=O)c1ccn([C@@H](CC2CCCC2)C(=O)Nc2ccc(C)cn2)c(=O)c1` returned a half-maximal effective concentration (EC50) in data set [1] of 0.5 µM.

In data set [1], `Cc1ccc(NC(=O)[C@H](CC2CCCC2)n2cc(C)c(S(C)(=O)=O)cc2=O)nc1` showed an EC50 of 0.44 µM.

In turn, `Cn1ccc(NC(=O)[C@H](CC2CCCC2)n2ccc(S(=O)(=O)C3CC3)cc2=O)n1` displayed a concentration giving a half-maximal response (EC50) in data set [1] of 1.5 µM.

By EC50 is commonly meant the concentration needed to bring the measured effect to its halfway point. A lower EC50 goes with higher potency in that assay. For orientation: bioavailability means dose-corrected exposure relative to a reference, in per cent. Read a low bioavailability as little systemic uptake. By half-life is commonly meant the time in which the quantity being followed falls by half. Broadly, the fraction unbound is the share of the substance not bound to proteins or other matrix. Lower therefore signals little free substance.
